From ChEMBL document CHEMBL1201862, “PubChem BioAssay data set” (2004)
Each block holds one compound with its values, some of them ahead of it. Calls of active or inactive are those of the source.

How the values were obtained:
[1] = Luminescence-based cell-based high throughput dose response assay to identify activators of the DAF-12 from the parasite S. stercoralis (ssDAF-12).; type: functional
[2] = molecular target: T1, Oxysterols receptor LXR-beta (Homo sapiens, UniProt P55055); type: functional, cell-based;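 further: Cell-based luminescence dose-response assay of agonist activity at LXR, run as a confirmatory counterscreen to a daf-12 agonist screen; agonist potency from rising luciferase signal of a Gal4-LXR reporter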
T1 sequence (P55055 whole entry): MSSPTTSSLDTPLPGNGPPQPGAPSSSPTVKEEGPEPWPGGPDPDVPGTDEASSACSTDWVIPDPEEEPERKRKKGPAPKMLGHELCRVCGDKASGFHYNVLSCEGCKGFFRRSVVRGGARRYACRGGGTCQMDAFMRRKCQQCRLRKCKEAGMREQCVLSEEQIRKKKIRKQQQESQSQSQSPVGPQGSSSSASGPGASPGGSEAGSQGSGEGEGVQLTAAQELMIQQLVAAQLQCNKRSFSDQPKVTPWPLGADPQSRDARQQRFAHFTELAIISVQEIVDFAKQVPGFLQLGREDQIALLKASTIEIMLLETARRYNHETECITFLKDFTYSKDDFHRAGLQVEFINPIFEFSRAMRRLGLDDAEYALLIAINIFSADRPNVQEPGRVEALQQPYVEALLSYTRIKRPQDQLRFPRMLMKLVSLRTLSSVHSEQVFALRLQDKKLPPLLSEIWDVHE

[3] = molecular target: T2, Mannose-6-phosphate isomerase (Homo sapiens, UniProt P34949); test: MPI inhibition at elevated mannose 6-phosphate – biochemical, fluorescence intensity, high mannose 6-phosphate, primary screen (AID 1220)
T2 sequence (P34949 whole entry): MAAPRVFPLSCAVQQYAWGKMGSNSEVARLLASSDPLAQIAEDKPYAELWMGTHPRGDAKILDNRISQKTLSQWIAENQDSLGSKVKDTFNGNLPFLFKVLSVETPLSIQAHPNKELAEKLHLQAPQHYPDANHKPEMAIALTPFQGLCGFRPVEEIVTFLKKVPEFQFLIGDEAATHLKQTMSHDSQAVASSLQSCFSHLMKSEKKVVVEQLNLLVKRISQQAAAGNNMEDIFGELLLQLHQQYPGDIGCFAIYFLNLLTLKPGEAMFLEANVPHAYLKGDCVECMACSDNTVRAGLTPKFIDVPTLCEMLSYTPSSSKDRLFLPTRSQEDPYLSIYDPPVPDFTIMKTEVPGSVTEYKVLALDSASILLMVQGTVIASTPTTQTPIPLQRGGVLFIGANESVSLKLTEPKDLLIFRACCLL

[4] = viability of uninfected HEp-2 cells – cell-based, HTS, cytotoxicity control for RSV inhibitor project, dose response (AID 2410); type: functional; conditions: human respiratory syncytial virus
Cytochrome P450 2C9 = Cytochrome P450 2C9 (Homo sapiens, UniProt P11712); conditions: Potency
Sequence of Cytochrome P450 2C9 (P11712 whole entry, the tested form may be a part): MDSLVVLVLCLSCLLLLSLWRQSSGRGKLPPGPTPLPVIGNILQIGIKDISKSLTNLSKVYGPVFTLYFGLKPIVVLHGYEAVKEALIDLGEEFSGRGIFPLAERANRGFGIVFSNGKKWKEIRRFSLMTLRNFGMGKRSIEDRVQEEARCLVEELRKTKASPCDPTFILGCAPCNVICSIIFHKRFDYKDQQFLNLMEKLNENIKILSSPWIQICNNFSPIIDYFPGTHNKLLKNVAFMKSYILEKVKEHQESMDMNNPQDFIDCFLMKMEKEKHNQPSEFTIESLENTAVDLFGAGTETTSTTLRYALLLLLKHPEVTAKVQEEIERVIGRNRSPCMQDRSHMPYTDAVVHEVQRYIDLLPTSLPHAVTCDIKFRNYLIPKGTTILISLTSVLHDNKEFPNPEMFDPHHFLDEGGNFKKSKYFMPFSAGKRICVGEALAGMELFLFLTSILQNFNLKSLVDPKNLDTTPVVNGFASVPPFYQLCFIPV

[5] = molecular target: T1, Oxysterols receptor LXR-beta; test: LXR agonists, Gal4 luciferase reporter, dose response, counter-screen for ssDAF-12 agonist project, cell-based, luminescence, HEK293, S. stercoralis campaign (AID 720737); type: functional; conditions: read-out: IC50 (the source's name)
Estrogen receptor beta = Estrogen receptor beta (Homo sapiens, UniProt Q92731);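 further: recombinant ER-beta bound to coactivator SRC1 peptide in presence of estradiol agonist; inhibitors block coactivator peptide binding and lower the FRET signal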
Sequence of Estrogen receptor beta (Q92731 whole entry): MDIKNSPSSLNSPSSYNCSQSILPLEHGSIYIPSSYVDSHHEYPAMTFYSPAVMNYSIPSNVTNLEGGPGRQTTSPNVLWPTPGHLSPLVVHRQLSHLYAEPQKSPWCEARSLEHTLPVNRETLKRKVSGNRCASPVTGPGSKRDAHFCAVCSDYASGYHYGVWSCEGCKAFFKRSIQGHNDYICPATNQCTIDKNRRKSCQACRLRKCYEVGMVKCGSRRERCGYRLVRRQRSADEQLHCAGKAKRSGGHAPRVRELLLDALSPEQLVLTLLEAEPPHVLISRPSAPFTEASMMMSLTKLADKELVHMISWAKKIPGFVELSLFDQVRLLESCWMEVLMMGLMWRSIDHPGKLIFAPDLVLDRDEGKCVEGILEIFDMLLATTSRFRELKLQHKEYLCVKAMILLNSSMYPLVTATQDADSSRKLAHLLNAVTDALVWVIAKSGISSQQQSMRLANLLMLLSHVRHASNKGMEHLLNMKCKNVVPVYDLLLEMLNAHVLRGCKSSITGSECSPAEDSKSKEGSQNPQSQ

Estrogen receptor = molecular target: T3, Estrogen receptor (Homo sapiens, UniProt P03372);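 further: potency for inhibiting coactivator peptide recruitment to the receptor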
T3 sequence (P03372 whole entry): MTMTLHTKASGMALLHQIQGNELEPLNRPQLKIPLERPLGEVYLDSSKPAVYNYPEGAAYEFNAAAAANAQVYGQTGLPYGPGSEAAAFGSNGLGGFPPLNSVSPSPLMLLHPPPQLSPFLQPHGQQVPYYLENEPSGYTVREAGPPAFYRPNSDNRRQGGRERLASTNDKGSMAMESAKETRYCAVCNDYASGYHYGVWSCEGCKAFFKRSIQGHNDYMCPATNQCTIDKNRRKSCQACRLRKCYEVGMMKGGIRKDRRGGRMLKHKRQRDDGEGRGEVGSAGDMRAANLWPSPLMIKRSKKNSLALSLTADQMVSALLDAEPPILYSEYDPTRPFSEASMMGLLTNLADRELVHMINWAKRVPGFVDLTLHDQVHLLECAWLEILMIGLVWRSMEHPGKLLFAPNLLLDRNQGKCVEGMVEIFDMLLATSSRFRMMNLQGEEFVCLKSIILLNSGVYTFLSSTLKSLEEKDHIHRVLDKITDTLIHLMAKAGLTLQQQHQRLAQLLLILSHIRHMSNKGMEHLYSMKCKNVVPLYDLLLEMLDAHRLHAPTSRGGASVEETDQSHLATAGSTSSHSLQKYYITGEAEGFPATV

Paired box protein Pax-8 = Paired box protein Pax-8 (Homo sapiens, UniProt Q06710); test: PAX8 transcriptional activity inhibition in RMG-I – RMG-I cells, luciferase, cherry-pick, dose response (AID 687027); type: functional, cell-based;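 further: luciferase reporter driven by Pax8 target thyroperoxidase promoter measured by SteadyGlo luminescence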
Sequence of Paired box protein Pax-8 (Q06710 whole entry): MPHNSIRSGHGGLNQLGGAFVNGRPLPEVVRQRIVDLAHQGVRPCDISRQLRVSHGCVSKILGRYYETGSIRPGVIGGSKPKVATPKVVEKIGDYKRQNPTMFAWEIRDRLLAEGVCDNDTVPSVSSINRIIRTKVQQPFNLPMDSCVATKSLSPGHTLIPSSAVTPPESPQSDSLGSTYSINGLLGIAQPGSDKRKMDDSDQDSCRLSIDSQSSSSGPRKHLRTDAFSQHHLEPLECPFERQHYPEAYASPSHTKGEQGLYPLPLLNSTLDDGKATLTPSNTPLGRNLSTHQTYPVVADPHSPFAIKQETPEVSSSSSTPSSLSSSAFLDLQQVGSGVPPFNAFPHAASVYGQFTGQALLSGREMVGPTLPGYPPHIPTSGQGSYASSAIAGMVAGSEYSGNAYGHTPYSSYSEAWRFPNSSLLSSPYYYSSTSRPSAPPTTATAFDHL

[6] = molecular target: T4, Heat shock factor protein 1 (Mus musculus, UniProt P38532); test: decrease of HSF1-responsive luciferase luminescence – cell-based, NIH3T3, dose retest, confirmation (AID 2382); type: functional;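 further: NIH3T3 fibroblasts with HSF1-driven luciferase reporter stressed by proteasome inhibitor MG132; luminescence from HSF1-driven luciferase expression after 8 hours of MG132 stress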
T4 sequence (P38532 whole entry): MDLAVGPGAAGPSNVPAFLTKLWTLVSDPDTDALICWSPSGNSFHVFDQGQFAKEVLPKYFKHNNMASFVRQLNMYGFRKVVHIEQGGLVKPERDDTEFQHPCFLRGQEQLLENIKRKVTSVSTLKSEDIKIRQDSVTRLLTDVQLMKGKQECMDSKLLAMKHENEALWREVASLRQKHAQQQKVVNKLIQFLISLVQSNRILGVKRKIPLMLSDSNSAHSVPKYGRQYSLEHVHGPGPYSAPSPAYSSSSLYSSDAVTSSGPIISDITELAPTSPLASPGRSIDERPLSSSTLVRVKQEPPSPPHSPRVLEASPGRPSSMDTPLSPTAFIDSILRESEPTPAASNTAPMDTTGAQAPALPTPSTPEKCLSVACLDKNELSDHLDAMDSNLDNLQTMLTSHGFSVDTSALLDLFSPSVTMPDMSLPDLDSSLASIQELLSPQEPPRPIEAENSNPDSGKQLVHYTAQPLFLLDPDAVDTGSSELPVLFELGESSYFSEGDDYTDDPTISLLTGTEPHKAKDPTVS

[7] = fluconazole-exposed Candida albicans growth modulators – fluorescence, retest, confirmation (AID 2467); type: functional, cell-based
[8] = NIH-3T3 fibroblast cytotoxicity, dose response, cytotoxicity control, cell-based, fluorescence, Alamar Blue, secondary assay (AID 2327); type: functional;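 further: NIH-3T3 mouse fibroblasts cultured with fluconazole at 8 µg/mL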
INS1 = test: INS-1E survival protection against cytokine death – cell-based, luminescence, retest, dose response (AID 449756); type: functional; conditions: Rattus norvegicus;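 further: cell death triggered by IL-1 beta plus TNF-alpha plus IFN-gamma mixture; protective hits raise ATP signal compared with cytokine alone wells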
[9] = molecular target: T5, COUP transcription factor 2 (Homo sapiens, UniProt P24468); test: Luminescence-based cell-based high throughput dose response assay to identify inhibitors of COUP-TFII (NR2F2).; type: functional;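 further: HEK293 cells transiently cotransfected with COUP-TFII expression vector and reporter; luciferase reporter luminescence driven by COUP-TFII from the pX2-168 reporter plasmid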
T5 sequence (P24468 whole entry): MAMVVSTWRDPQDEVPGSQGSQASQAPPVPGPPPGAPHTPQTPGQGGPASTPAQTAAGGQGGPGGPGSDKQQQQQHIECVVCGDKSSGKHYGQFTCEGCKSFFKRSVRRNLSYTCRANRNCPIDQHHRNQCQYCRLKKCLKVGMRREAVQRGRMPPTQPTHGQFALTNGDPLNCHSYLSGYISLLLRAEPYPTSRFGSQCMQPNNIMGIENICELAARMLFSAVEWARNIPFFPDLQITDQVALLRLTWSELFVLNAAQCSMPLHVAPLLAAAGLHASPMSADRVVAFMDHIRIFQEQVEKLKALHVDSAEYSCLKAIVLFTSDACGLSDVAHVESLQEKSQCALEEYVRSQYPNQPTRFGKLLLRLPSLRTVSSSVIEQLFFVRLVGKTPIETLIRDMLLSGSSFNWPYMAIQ

[10] = HEK-293T viability loss after treatment – luminescence, T-cell screen hits, cytotoxicity control for TCR NF-kB inhibitor project, dose response (AID 489026); type: functional, cell-based;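 further: cells exposed to compound about 14 hours before the viability readout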
[11] = OVCAR8 cell viability loss – plate reader, dry powder samples, PAX8 project, dose response (AID 743197); type: functional, cell-based; conditions: OVCAR-8
[12] = A2780 cell killing – plate reader, dry powder samples, cytotoxicity control, dose response (AID 743046); type: functional, cell-based

SMILES: Cc1ccc2[nH]c(-c3sc4nc(C)ccc4c3N)nc2c1
- IC50 [1]: > 67.6 µM (inactive)
- EC50 (cells): > 67.5 µM (inactive)
- EC50 [2]: > 67.5 µM (inactive)

- IC50 [3]: > 50 µM (not active)
SMILES: CC(C)C/N=C/c1c(O)c([N+](=O)[O-])cc2oc3c(c12)CCCC3
- CC50 [4]: 25.3 µM (active)

- AC50 (Cytochrome P450 2C9): 31.6 µM (inconclusive)
SMILES: CC(C)C[C@@H](CC(=O)N[C@H](CC(=O)N[C@@H]1CCCC[C@H]1C(=O)N[C@H](CC(=O)N[C@@H](CCC(=O)O)CC(=O)O)Cc1ccccc1)C(C)C)NC(=O)[C@@H]1CNCC[C@H]1N

SMILES: Cc1cc(-c2nc3ccccc3s2)ccc1N
- IC50 [1]: > 67.6 µM (inactive)
- EC50 (cells): > 67.6 µM (inactive)
- EC50 [2]: > 67.6 µM (inactive)
- EC50 [5]: > 67.6 µM (inactive)

- IC50 (Estrogen receptor beta): 16.8 µM (active)
- IC50 (Estrogen receptor): 13.4 µM (active)
SMILES: O=C(Cc1cccs1)Nc1ccccn1

SMILES: Cn1cccc1C(=O)OCc1csc(-c2ccccc2)n1
- IC50 [1]: > 67.5 µM (inactive)
- EC50 (cells): > 67.5 µM (inactive)
- EC50 [2]: > 67.5 µM (inactive)
- EC50 [5]: > 67.5 µM (inactive)

- AC50 (Cytochrome P450 2C9): 39.8 µM (inconclusive)
SMILES: CC(C)C[C@@H](CC(=O)N[C@@H](CCCN)CC(=O)N[C@@H]1CCNC[C@H]1C(=O)N[C@H](CC(=O)N[C@@H](CCC(=O)O)CC(=O)O)CC(C)C)NC(=O)[C@@H]1CNCC[C@H]1N

SMILES: Cc1cccc(NCc2ccc(O)c3ncccc23)c1C
- AC50 (Paired box protein Pax-8): 15 µM (active)
- IC50 [3]: > 50 µM (not active)
- EC50 [6]: > 195 µM (not active)
- EC50 [7]: > 38 µM (not active)
- EC50 [8]: > 150 µM (inactive)

- AC50 (Cytochrome P450 2C9): 31.6 µM (inconclusive)
SMILES: CC(C)C[C@@H](CC(=O)N[C@@H](CCC(=O)O)CC(=O)O)NC(=O)[C@@H]1CCCC[C@H]1NC(=O)C[C@@H](NC(=O)C[C@H](CO)NC(=O)[C@@H]1CNCC[C@H]1N)C(C)C

SMILES: Cc1nn(C)c(C)c1CN(Cc1nc(CCC(C)C)no1)C(C)C
- AC50 (INS1): 2.24 µM (active)
- IC50 [9]: 4.68 µM (active)
- IC50 [10]: > 80 µM (inactive)

SMILES: O=C(C[C@@H]1CC[C@H]2[C@@H](COC[C@H](O)CN2C(=O)Nc2ccc(Cl)c(Cl)c2)O1)NCc1ccc(Cl)cc1
- AC50 (Paired box protein Pax-8): 13.5 µM (active)
- AC50 [11]: > 70 µM (inactive)
- AC50 [12]: 11.9 µM (active)

SMILES: O=C(CNC(=O)c1cccs1)OCC(=O)c1ccc(Cl)cc1
- IC50 [1]: > 67.5 µM (inactive)
- EC50 [5]: > 67.5 µM (inactive)
